In EP4509145A1, “PSMA THERANOSTIC COMPOUNDS ASSEMBLED WITH TETRAZINE-TRANS-CYCLOOCTENE LIGATION” (University of Copenhagen, priority 2023, dated 2025):
Read-outs that look alike come from different tables or passages of the source.

Assays:
LNCaP cells = test: internalization assay (surface binding and internalization, with and without 2-PMPA block); assay type: cell-based; conditions: for Cell surface / Internalized: n = 4; for Cell surface blocked / Internalized blocked: with 2-PMPA 500 µM/well
Method: Poly-L-Lysine (300 µL of a 0.01% w/v in H2O) is added to each well of a 24-well plate (Greiner Bio). The plate is left at room temperature for 20-30 minutes. Afterwards, the poly-L-lysine solution is removed, and the wells washed with 500 µL of PBS. Afterwards, 1 mL of LNCaP cells suspension is placed in each well to obtain 10^5 cells/well. The 24-well plates are left in the incubator overnight until the start of the internalisation experiment. Subsequently, the previously plated cells were incubated at 37 °C with the selected ^18 F-labelled PSMA derivative in 250 µL growth medium for 45 min (c = 32 nM). For the determination of specific uptake, 2-PMPA was added into half of the wells in an excess concentration of 500 µM/well. After incubation, cellular uptake was interrupted by removing the medium and washing the cells with ice-cold PBS (3 × 1 mL). The surface bound radioactivity was removed by washing with 50 mM glycine (pH 2.8, 2 × 500 µL). Finally, the internalized fraction was determined by lysis of the cells with 0.3 M NaOH (1 × 500 µL). Fractions collected from the surface bound activity and lysates were collected and measured in a gamma counter. All counts were normalized to the starting activity and specific surface binding as well as specific internalization were determined by subtracting the non-specific binding obtained from the wells treated with 2-PMPA. Results were calculated and expressed as %AA/10^5 cells (% applied activity/105 cells, n = 4). [^68Ga]-PSMA617 was selected as a reference to compare internalization values. The experiment was conducted two times on different compounds. PSMA-617 was used as a reference and internal control for both experiments. […] The higher internalization could have a big impact on the therapeutic effect of such molecules.

[1] = in vivo PET imaging in rats of [^18F]-labeled PSMA derivatives; conditions: healthy rats, i.v., 90-min PET acquisition (Figure 15)
Method: Long-Evans female rats weighing 200 - 300 g (Charles River, Calco, Italy), were housed in a cage of 2-3 rats per cage and kept in a climate-controlled facility with a 12-hr light/dark cycle. The cages had environmental enrichment (nest box, biting stick). All rats were fed ad libitum with commercial breeding diet (1310 FORTI-Avlsfoder, Brogaarden, Altromin International) and had free access to water. All the experiments were performed in accordance with the European Commission's Directive 2010/63/EU, FELASA and ARRIVE guidelines for animal research and, with approval from The Danish Council for Animal Ethics (license numbers 2017-15-0201-01283 and 2017-15-0201-01375) together with the Department of Experimental Medicine, University of Copenhagen.
The scans were performed on the Siemens HRRT (High-Resolution Research Tomography) (CPS Innovations/Siemens, Malvern, PA, USA). On the day of experiment, the rats were weighed and then transported to the scanner at least 2 h before the scan. Anesthesia was induced using 3% isoflurane in oxygen flow. All rats were placed in a 2 × 2 custom made rat holder, enabling simultaneous scanning of four rats 17-19. While in the custom-made rat holder, the rats were kept under anesthesia with a constant flow of isoflurane (-2% isoflurane in oxygen). […]

PSMA = target: T1, PSMA (Rattus norvegicus, UniProt P70627); test: in vitro autoradiography competition assay on rat brain slices against [^111In]In-PSMA-617; assay type: binding
T1 construct: tissue Taconic Biosciences (rats); host or cells: rat brain, sagittal slices containing midbrain
T1 sequence (P70627 whole entry): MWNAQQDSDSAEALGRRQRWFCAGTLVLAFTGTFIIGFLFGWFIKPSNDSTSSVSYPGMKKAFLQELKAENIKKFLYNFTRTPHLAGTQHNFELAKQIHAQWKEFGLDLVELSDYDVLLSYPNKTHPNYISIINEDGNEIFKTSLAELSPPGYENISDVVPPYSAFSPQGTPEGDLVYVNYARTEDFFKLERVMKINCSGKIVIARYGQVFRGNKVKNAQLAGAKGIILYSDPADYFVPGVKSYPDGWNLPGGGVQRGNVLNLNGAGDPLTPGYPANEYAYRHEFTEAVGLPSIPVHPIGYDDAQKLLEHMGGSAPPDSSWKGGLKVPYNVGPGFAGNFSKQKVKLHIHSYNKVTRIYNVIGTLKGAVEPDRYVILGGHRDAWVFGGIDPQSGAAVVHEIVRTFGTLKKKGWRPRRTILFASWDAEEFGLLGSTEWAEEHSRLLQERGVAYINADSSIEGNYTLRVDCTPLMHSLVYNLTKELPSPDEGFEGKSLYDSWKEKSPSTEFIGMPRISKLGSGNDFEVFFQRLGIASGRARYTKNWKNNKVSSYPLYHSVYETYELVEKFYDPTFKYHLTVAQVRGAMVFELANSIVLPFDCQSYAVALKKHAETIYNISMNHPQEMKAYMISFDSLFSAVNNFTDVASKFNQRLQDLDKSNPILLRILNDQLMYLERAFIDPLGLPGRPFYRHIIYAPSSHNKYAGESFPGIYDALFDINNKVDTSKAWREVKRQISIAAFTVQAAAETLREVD
Method: This method provided [^111In]-PSMA-617 in >95% radiochemical yield, as determined by reverse-phase HPLC.
Rat brain slices were obtained from female Sprague-Dawley rats (weight~250g; Taconic Biosciences). The rats were sacrificed by decapitation, brains were extracted, frozen at -80 °C and stored at the same temperature. To prepare slices for autoradiography, brains were cut into halves along the sagittal symmetry plane. Each half was mounted, lateral side up, on the cryostat sample holder pretreated by Tissue-Tek OCT compound and fixed by freezing in the cryostat. […]
For competition assay, the slides were incubated with 2 nM [^111In]In-PSMA-617 and increasing concentrations (0.1-30 nM) of investigated PSMA derivatives for the same amount of time in the same assay buffer. Non-specific binding was determined by adding 5 µM 2-(phosphonomethyl)pentanedioic acid (PMPA) to [^111In]In-PSMA-617 solutions. […]
The screens were then read by a Cyclone Plus storage phosphor system (Packard Instruments Co). Quantification of readings was done with Optiquant software (version 3.00, Packard Instruments Co). Namely, elliptic regions of interest (ROIs) encompassing the midbrain and cerebellar nuclei were drawn inside the brain slice images, while circular ROIs were drawn around calibration curve spots, and average exposure was calculated for both ROI categories. […]

[2] = first experiment, LNCaP, 37 °C, 45 min, c = 32 nM
[3] = second experiment ([^68Ga] compounds), LNCaP, 37 °C, 45 min, c = 32 nM
[4] = second experiment ([^68Ga] compounds)

Row | Ki (PSMA; competition with 2 nM [^111In]In-PSMA-617, 1.5 h, Ki from IC50 by Cheng-Prusoff, mean ± SD, number of determinations in parentheses, read-out: Affinity (Ki)) [nM] | Compound | Cell surface (LNCaP cells; [2]) [%AA/10^5 cells] | Internalized (LNCaP cells; [2]) [%AA/10^5 cells] | Cell surface blocked (LNCaP cells; [2]) [%AA/10^5 cells] | Internalized blocked (LNCaP cells; [2]) [%AA/10^5 cells] | excretion route [1] | Ki (PSMA; read-out: Affinity (Ki), competition with 2 nM [^111In]In-PSMA-617, 1.5 h, Ki from IC50 by Cheng-Prusoff, mean ± SD, number of determinations in parentheses) [nM] | Cell surface (LNCaP cells; [3]) [%AA/10^5 cells] | Internalized (LNCaP cells; [3]) [%AA/10^5 cells] | Cell surface blocked (LNCaP cells; [4]) [%AA/10^5 cells] | Internalized blocked (LNCaP cells; [4]) [%AA/10^5 cells]
1 | – | O=C(O)CC[C@H](NC(=O)N[C@@H](CCCCNC(=O)[C@H](Cc1ccc2ccccc2c1)NC(=O)[C@H]1CC[C@H](CNC(=O)CN2C(=O)c3cc4nc5c(nc4cc3C2=O)CCc2c(cnnc2-c2ccc(OCCF)cc2)CC5)CC1)C(=O)O)C(=O)O [[^18F]16, PSMA-NH-T4CO-FTz] | 0.36 ± 0.03 | 1.98 ±0.17 | 0.09 ± 0.01 | 0.78 ± 0.11 | excreted mainly through the liver | – | – | – | – | –
2 | – | N=C(N)NCCCC(NC(=O)CN1C(=O)c2cc3nc4c(nc3cc2C1=O)CCc1c(cnnc1-c1ccc(OCC[18F])cc1)CC4)C(=O)NC(CCCNC(=N)N)C(=O)NC(CCCNC(=N)N)C(=O)NCC1CCC(C(=O)NC(Cc2ccc3ccccc3c2)C(=O)NCCCCC(NC(=O)NC(CCC(=O)O)C(=O)O)C(=O)O)CC1 (centres unmarked) [[^18F]40, PSMA-3Arg-NH-T4CO-FTz] | 5.15 ± 0.87 | 4.53 ± 0.55 | 4.70 ± 1.05 | 4.10 ± 0.65 | – | 47.5 | – | – | – | –
3 | – | O=C(O)CC[C@H](NC(=O)N[C@@H](CCCCNC(=O)[C@H](Cc1ccc2ccccc2c1)NC(=O)[C@H]1CC[C@H](CNC(=O)CN2CCN(CC(=O)O)CCN(CC(=O)O)CCN(CC(=O)O)CC2)CC1)C(=O)O)C(=O)O [[^68Ga]-PSMA-617, vipivotide tetraxetan, metal not drawn, reference compound] | 0.36 ± 0.03 | 0.27± 002 | 0.03± 0.01 | 0.03 ± 0.01 | – | – | 0.36 ± 0.03 | 0.13± 001 | 0.03± 0.01 | 0.02 ± 0.01
4 | 3.1 ± 0.28 | N=C(N)NCCCC(NC(=O)CN1C(=O)c2cc3nc4c(nc3cc2C1=O)CCc1c(cnnc1-c1ccc(OCC[18F])cc1)CC4)C(=O)NC(CCC(=O)O)C(=O)NC(CCCNC(=N)N)C(=O)NC(CCC(=O)O)C(=O)NC(CCCNC(=N)N)C(=O)NC(CCC(=O)O)C(=O)NCC1CCC(C(=O)NC(Cc2ccc3ccccc3c2)C(=O)NCCCCC(NC(=O)NC(CCC(=O)O)C(=O)O)C(=O)O)CC1 (centres unmarked) [[^18F]30, PSMA-NH-AAAAAA-T4CO-FTz] | 0.64 ± 0.10 | 0.54 ± 0.06 | 0.08 ± 0.01 | 0.07 ± 0.01 | – | – | – | – | – | –
